Data as given in PubChem BioAssay (NCI).
Several values for one entry are separate records, joined by “and”; a condition that tells them apart may be missing. Identical values can stand only once.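 The compound was tested at five concentrations on cells cultured in 96-well plates, with a 48-hour exposure period. The concentration for 50% growth inhibition is given as GI50. TGI marks complete inhibition of growth.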

What was measured:
Assay in all cases: growth of human tumour cells (NCI), 48 h
CAKI-1 renal = test system: CAKI-1 renal
HOP-92 NSCLC = test system: HOP-92 NSCLC
MOLT-4 leukemia = test system: MOLT-4 leukemia
HOP-62 NSCLC = test system: HOP-62 NSCLC
COLO 205 colon = test system: COLO 205 colon
NCI-H460 lung = test system: NCI-H460 lung
KM20L2 colon = test system: KM20L2 colon
UACC-62 melanoma = test system: UACC-62 melanoma
K-562 leukemia = test system: K-562 leukemia
SNB-75 CNS = test system: SNB-75 CNS
OVCAR-3 ovarian = test system: OVCAR-3 ovarian
SF-539 CNS = test system: SF-539 CNS
MALME-3M melanoma = test system: MALME-3M melanoma
HCC-2998 colon = test system: HCC-2998 colon
U251 CNS = test system: U251 CNS
HT29 colon = test system: HT29 colon
HL-60(TB) leukemia = test system: HL-60(TB) leukemia
XF 498 CNS = test system: XF 498 CNS
ACHN renal = test system: ACHN renal
RPMI-8226 leukemia = test system: RPMI-8226 leukemia
UACC-257 melanoma = test system: UACC-257 melanoma
TK-10 renal = test system: TK-10 renal
SNB-19 CNS = test system: SNB-19 CNS
OVCAR-5 ovarian = test system: OVCAR-5 ovarian
786-0 renal = test system: 786-0 renal
LXFL 529 NSCLC = test system: LXFL 529 NSCLC
OVCAR-4 ovarian = test system: OVCAR-4 ovarian
RXF-631 renal = test system: RXF-631 renal
NCI-H23 lung = test system: NCI-H23 lung
HCT-15 colon = test system: HCT-15 colon
KM12 colon = test system: KM12 colon
HCT-116 colon = test system: HCT-116 colon
A498 renal = test system: A498 renal
DLD-1 colon = test system: DLD-1 colon
NCI-H226 lung = test system: NCI-H226 lung
SF-295 CNS = test system: SF-295 CNS
IGROV1 ovarian = test system: IGROV1 ovarian
SN12C renal = test system: SN12C renal
A549 NSCLC = test system: A549 NSCLC
SF-268 CNS = test system: SF-268 CNS
SK-MEL-2 melanoma = test system: SK-MEL-2 melanoma
CCRF-CEM leukemia = test system: CCRF-CEM leukemia
SK-OV-3 ovarian = test system: SK-OV-3 ovarian
SR leukemia = test system: SR leukemia
NCI-H522 lung = test system: NCI-H522 lung
UO-31 renal = test system: UO-31 renal
EKVX NSCLC = test system: EKVX NSCLC
OVCAR-8 ovarian = test system: OVCAR-8 ovarian
SK-MEL-28 melanoma = test system: SK-MEL-28 melanoma
DMS 114 small cell lung = test system: DMS 114 small cell lung
M19-MEL melanoma = test system: M19-MEL melanoma
DMS 273 small cell lung = test system: DMS 273 small cell lung
SW-620 colon = test system: SW-620 colon
SK-MEL-5 melanoma = test system: SK-MEL-5 melanoma
M14 melanoma = test system: M14 melanoma
HOP-18 NSCLC = test system: HOP-18 NSCLC
RXF 393 renal = test system: RXF 393 renal
LOX IMVI melanoma = test system: LOX IMVI melanoma

CCOC(=O)C(=O)Nc1ccccc1C(C)C
TGI (CAKI-1 renal): > 100 µM
TGI (HOP-92 NSCLC): > 100 µM
TGI (MOLT-4 leukemia): > 100 µM
TGI (HOP-62 NSCLC): > 100 µM
TGI (COLO 205 colon): > 100 µM
TGI (NCI-H460 lung): > 100 µM
TGI (KM20L2 colon): > 100 µM
TGI (UACC-62 melanoma): > 100 µM
TGI (K-562 leukemia): > 100 µM
TGI (SNB-75 CNS): > 100 µM
TGI (OVCAR-3 ovarian): > 100 µM
TGI (SF-539 CNS): > 100 µM
TGI (MALME-3M melanoma): > 100 µM
TGI (HCC-2998 colon): > 100 µM
TGI (U251 CNS): > 100 µM
TGI (HT29 colon): > 100 µM
TGI (HL-60(TB) leukemia): > 100 µM
TGI (XF 498 CNS): > 100 µM
TGI (ACHN renal): > 100 µM
TGI (RPMI-8226 leukemia): > 100 µM
TGI (UACC-257 melanoma): > 100 µM
TGI (TK-10 renal): > 100 µM
TGI (SNB-19 CNS): > 100 µM
TGI (OVCAR-5 ovarian): > 100 µM
TGI (786-0 renal): > 100 µM
TGI (LXFL 529 NSCLC): > 100 µM
TGI (OVCAR-4 ovarian): > 100 µM
TGI (RXF-631 renal): > 100 µM
TGI (NCI-H23 lung): > 100 µM
TGI (HCT-15 colon): > 100 µM
TGI (KM12 colon): > 100 µM
TGI (HCT-116 colon): > 100 µM
TGI (A498 renal): > 100 µM
TGI (DLD-1 colon): > 100 µM
TGI (NCI-H226 lung): > 100 µM
TGI (SF-295 CNS): > 100 µM
TGI (IGROV1 ovarian): > 100 µM
TGI (SN12C renal): > 100 µM
TGI (A549 NSCLC): > 100 µM
TGI (SF-268 CNS): > 100 µM
TGI (SK-MEL-2 melanoma): > 100 µM
TGI (CCRF-CEM leukemia): > 100 µM
TGI (SK-OV-3 ovarian): > 100 µM
TGI (SR leukemia): > 100 µM
TGI (NCI-H522 lung): > 100 µM
TGI (UO-31 renal): > 100 µM
TGI (EKVX NSCLC): > 100 µM
TGI (OVCAR-8 ovarian): > 100 µM
TGI (SK-MEL-28 melanoma): > 100 µM
TGI (DMS 114 small cell lung): > 100 µM
TGI (M19-MEL melanoma): > 100 µM
TGI (DMS 273 small cell lung): > 100 µM
TGI (SW-620 colon): > 100 µM
TGI (SK-MEL-5 melanoma): > 100 µM
TGI (M14 melanoma): > 100 µM
TGI (HOP-18 NSCLC): > 100 µM

CCOP1(=O)C=C(C)C(=C(Cl)Cl)C(C)=C1 (configuration not stated)
TGI (CAKI-1 renal): 49.3 µM
TGI (MOLT-4 leukemia): 42.9 µM
TGI (HOP-62 NSCLC): 40.6 µM
TGI (COLO 205 colon): 29 µM
TGI (NCI-H460 lung): > 100 µM
GI50 (KM20L2 colon): 4.53 µM
TGI (KM20L2 colon): 6.76 µM and 65.3 µM
GI50 (UACC-62 melanoma): 9.31 µM
TGI (UACC-62 melanoma): 23.6 µM
TGI (K-562 leukemia): 16.3 µM
GI50 (SNB-75 CNS): 30 µM
TGI (SNB-75 CNS): > 100 µM
TGI (OVCAR-3 ovarian): 64.2 µM
TGI (SF-539 CNS): 66.7 µM
TGI (MALME-3M melanoma): 47.3 µM
TGI (HCC-2998 colon): 31.4 µM
TGI (U251 CNS): 50.9 µM
GI50 (HT29 colon): 6.6 µM
TGI (HT29 colon): 84.1 µM
TGI (HL-60(TB) leukemia): 10.9 µM
TGI (XF 498 CNS): 35.7 µM
TGI (ACHN renal): 68.1 µM
TGI (RPMI-8226 leukemia): 28.4 µM
GI50 (UACC-257 melanoma): 11.5 µM
TGI (UACC-257 melanoma): 89 µM
TGI (TK-10 renal): 77.2 µM
TGI (SNB-19 CNS): 50.3 µM
TGI (786-0 renal): > 100 µM
GI50 (LXFL 529 NSCLC): 5.53 µM
TGI (LXFL 529 NSCLC): 24.1 µM
TGI (OVCAR-4 ovarian): 29.1 µM
GI50 (RXF-631 renal): 20.4 µM
TGI (RXF-631 renal): 64.5 µM
TGI (NCI-H23 lung): 38 µM
TGI (HCT-15 colon): 36.9 µM
TGI (KM12 colon): 5.11 µM
GI50 (HCT-116 colon): 3.33 µM
TGI (HCT-116 colon): 7.13 µM and 13.3 µM
TGI (A498 renal): 76.3 µM
TGI (RXF 393 renal): 30.7 µM
GI50 (LOX IMVI melanoma): 22.8 µM
TGI (LOX IMVI melanoma): > 100 µM
TGI (DLD-1 colon): 78.5 µM
GI50 (NCI-H226 lung): 3.44 µM
TGI (NCI-H226 lung): 21.2 µM
TGI (SF-295 CNS): 39.8 µM
TGI (IGROV1 ovarian): 90.9 µM
TGI (SN12C renal): > 100 µM
TGI (A549 NSCLC): 58.8 µM
GI50 (SF-268 CNS): 15.8 µM
TGI (SF-268 CNS): > 100 µM
TGI (SK-MEL-2 melanoma): 56.2 µM
TGI (CCRF-CEM leukemia): 68.6 µM
TGI (SK-OV-3 ovarian): > 100 µM
GI50 (NCI-H522 lung): 5.57 µM
TGI (NCI-H522 lung): 7.79 µM and 18.9 µM
TGI (UO-31 renal): 52.9 µM
TGI (EKVX NSCLC): 38.3 µM
TGI (OVCAR-8 ovarian): > 100 µM
TGI (SK-MEL-28 melanoma): > 100 µM
GI50 (M19-MEL melanoma): 12.9 µM
TGI (M19-MEL melanoma): 36.3 µM
TGI (SW-620 colon): 30.7 µM
GI50 (M14 melanoma): 10.7 µM
TGI (M14 melanoma): 24.6 µM
TGI (HOP-18 NSCLC): 46.9 µM
